What was measured:
[1] = test system: PCI-15B cells; experiment: Gossypol dose response, MTT assays and cell counting; type: cell-based; conditions: 72 h, day 3 after treatment
Method: In FIG. 7, PCI-15B cells were treated with 0, 0.003, 0.03, 3, and 30 μM gossypol. After 3 days, MTT assays and cell counting experiments were performed. […] Bars indicate standard error. […] The STAT3 decoy will be combined with gossypol to determine the antitumor efficacy of the combination treatment.

[2] = test system: GAS-responsive element; experiment: pGAS-Luc reporter gene assay in UM-22B SCCHN cells; type: cell-based; conditions: UM-22B pGAS-Luc, 2 μg transfected, 24 hrs, IFN-γ stimulation
Method: FIG. 9 depicts the inhibition of reporter gene expression from GAS-responsive element in SCCHN cells. An SCCHN cell line, UM-22B, was used to generate a stable cell line expressing a pGAS-Luc reporter gene (pGAS-Luc plasmid carrying 4 repeats of GAS sequence: [NT] ID NO: 31), was obtained from Stratagene, Catalog number: 219091-51). The cells were transfected with 2 μg of the STAT3 decoy or the control mutant decoy. At 24 hrs after transfection, luciferase activity was measured and normalized to the total amount of protein.

[3] = test system: p53-responsive element; experiment: p53-Luciferase reporter gene assay in UM-22B SCCHN cells; type: cell-based; conditions: UM-22B p53-Luc, 2 μg transfected, 24 hrs
Method: FIG. 8 depicts the inhibition of reporter gene expression from a p53-responsive element in SCCHN cells. An SCCHN cell line, UM-22B, was used to generate a stable cell line expressing a p53-Luciferase (p53-Luc) reporter gene (The p53-Luc plasmid carrying 14 repeats of p53 transcription recognition sequence: 5'-[…] ID NO: 30)), was obtained from Stratagene, Catalog number: 219085-51). The cells were transfected with 2 μg of the STAT3 decoy or the control mutant decoy. At 24 hrs after transfection, luciferase (Luc) activity was measured and normalized to the total amount of protein according to standard methods.

[4] = target: T1, STAT1 (Homo sapiens, UniProt P42224); experiment: EMSA of STAT1 binding to the STAT3 decoy, PCI-15B nuclear extracts; conditions: supershift
T1 construct: Nuclear protein extracts of PCI-15B cells, prepared according to standard methods, were used for the EMSA; endogenous in cells; host or cells: PCI-15B cells (nuclear extract)
T1 sequence (P42224 2-750 limits assumed): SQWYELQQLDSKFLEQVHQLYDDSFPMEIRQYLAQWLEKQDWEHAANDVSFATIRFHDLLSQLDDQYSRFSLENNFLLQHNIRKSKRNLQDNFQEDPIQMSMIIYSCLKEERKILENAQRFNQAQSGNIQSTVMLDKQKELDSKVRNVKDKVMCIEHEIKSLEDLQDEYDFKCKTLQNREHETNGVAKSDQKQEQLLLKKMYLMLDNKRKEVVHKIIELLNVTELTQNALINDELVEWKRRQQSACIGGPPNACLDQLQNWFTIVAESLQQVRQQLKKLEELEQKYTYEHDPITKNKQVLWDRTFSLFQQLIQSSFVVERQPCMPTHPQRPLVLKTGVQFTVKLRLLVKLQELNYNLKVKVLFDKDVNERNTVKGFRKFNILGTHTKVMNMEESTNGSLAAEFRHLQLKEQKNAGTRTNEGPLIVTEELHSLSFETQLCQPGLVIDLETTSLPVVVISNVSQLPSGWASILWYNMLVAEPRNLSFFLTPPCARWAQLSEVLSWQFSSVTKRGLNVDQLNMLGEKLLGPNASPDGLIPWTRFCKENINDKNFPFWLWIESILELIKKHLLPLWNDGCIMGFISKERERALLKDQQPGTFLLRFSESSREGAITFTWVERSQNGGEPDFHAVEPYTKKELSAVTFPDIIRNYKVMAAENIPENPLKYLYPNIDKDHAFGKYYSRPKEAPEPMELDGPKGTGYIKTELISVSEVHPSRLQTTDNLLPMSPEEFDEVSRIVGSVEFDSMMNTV
Method: FIG. 10 depicts binding of STAT 1 to the STAT3 decoy in an electrophoretic mobility shift assay (EMSA). Nuclear protein extracts of PCI-15B cells, prepared according to standard methods, were used for the EMSA. The specificity of STAT1 or STAT3 binding to the STAT3 decoy was determined by supershifting with STAT1- or STAT3-specific antibodies, or both. The experiment has been repeated more than 3 times.

[5] = target: T2, STAT3 (Homo sapiens, UniProt P40763); experiment: EMSA of STAT3 decoy and derivative decoys, relative binding to STAT3
T2 construct: Whole cell extracts were prepared and EMSAs performed on 4% native polyacrylamide gels; endogenous in cells; host or cells: whole cell extracts
T2 sequence (P40763 2-770 limits assumed): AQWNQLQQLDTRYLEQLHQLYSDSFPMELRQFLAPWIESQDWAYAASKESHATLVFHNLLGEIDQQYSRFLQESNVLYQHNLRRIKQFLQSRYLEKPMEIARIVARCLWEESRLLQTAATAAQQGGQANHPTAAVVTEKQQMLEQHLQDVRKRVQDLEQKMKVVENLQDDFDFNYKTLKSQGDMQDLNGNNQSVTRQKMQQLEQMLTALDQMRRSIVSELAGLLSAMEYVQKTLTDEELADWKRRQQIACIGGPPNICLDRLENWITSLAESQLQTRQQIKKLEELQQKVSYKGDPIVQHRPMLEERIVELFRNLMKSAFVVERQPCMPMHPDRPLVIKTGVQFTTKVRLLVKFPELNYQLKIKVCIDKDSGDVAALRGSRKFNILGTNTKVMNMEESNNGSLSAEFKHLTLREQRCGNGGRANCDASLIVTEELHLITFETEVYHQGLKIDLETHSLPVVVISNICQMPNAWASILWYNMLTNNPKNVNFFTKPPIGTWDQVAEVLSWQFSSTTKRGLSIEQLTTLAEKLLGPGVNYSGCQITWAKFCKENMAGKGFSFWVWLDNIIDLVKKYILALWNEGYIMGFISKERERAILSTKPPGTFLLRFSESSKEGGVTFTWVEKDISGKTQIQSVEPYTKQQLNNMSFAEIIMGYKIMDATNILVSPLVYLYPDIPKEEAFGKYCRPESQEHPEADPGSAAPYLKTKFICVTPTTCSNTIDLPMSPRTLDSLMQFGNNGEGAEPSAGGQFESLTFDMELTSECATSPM
Method: Derivative decoys were identified by electrophoretic mobility shift assay, performed as described herein. Table 1 describes a number of STAT3 decoy derivatives along with their relative binding to STAT3.
Electrophoretic Mobility Shift Assay (EMSA). Whole cell extracts were prepared and EMSAs performed on 4% native polyacrylamide gels as described (Xi, S., et al. J Biol Chem, 278: 31574-31583, 2003 and Wong, P., etal. Mol Cell Biol, 14. 914-922, 1994). STAT3 activation was evaluated by using binding reactions with 20 μg of extracted protein, and radiolabeled high-affinity serum inducible element (hSIE) duplex oligonucleotide (Wagner et al., EMBO J. 9(13):4477-4484 (1990)). Quantification of the STAT3 signal was performed by scanning the SIF-A band using a Molecular Dynamics Personal Densitometer SI and IMAGEQUANT software. […] For supershift experiments, extracts were preincubated with STAT3 polyclonal antibody (C-20, Santa Cruz Biotechnology). Gel shift bands were quantified by densitometry and the Molecular Analyst software (AlphaDigidoc 1000, Alpha-Innotech) with normalization of each band to the positive control lysate run on that gel as described previously for STAT3 activation determinations (Grandis, J. R. et al. Proc Natl Acad Sci USA, 97: 4227-4232., 2000).

Cc1cc2c(C(C)C)c(O)c(O)c(C=O)c2c(O)c1-c1c(C)cc2c(C(C)C)c(O)c(O)c(C=O)c2c1O [gossypol, 2,2′-bis-(Formyl-1,6,7-trihydroxy-5-isopropyl-3-methylnaphthalene)]
IC50 [1]: 297 nM

mutant control decoy: double-stranded oligonucleotide 5′-CATTTCCCTTAAATC-3′, 3′-GTAAAGGGAATTTAG-5′; same sequence as Mutant 3 of Table 1 [reference compound]
reporter gene expression from a GAS-responsive element (STAT1 reporter activity) [2]: not
p53 reporter activity [3]: not
binding to STAT1 [4]: not

B1: longer sequence: 5′-AGCTTGTCGACATTTCCCGTAAATCGTCGAG-3′, 3′-…-5′; longer decoy initially examined (nucleic acid, listed as Homo sapiens)
sense: AGCTTGTCGACATTTCCCGTAAATCGTCGAG
antisense: CTCGACGATTTACGGGAAATGTCGACAAGCT
modifications: listed as DNA, chemistry not given here
notes: longer decoy initially examined
blocking STAT3 activation [5]: effective
